Test system: lymph nodes and spleens
Assay: In vivo migration of PKH+ DCs to lymph nodes and spleen (immunofluorescence)
Parameters: species or system C57BL/6 mice
Settings: intradermal injection, 48 hours
Protocol: Dendritic cells were cultured and loaded with sarcosine as described in Example 1. DCs were also loaded with PKH cell membrane dye. […] After 48 hours, the lymph nodes and spleens were collected from the mice and immunofluorescence was performed to visualize PKH+ cells (which are the injected DCs) and B220+ cells (which are B cells). […] There was vastly more migration to the lymph nodes/spleen.

## CNCC(=O)O [sarcosine, N-methylglycine]
  Increase of migration to the lymph nodes and the spleen over controls, on visual inspection: more than two times, three times, four times more, five times and perhaps even more than ten-fold more than controls

Source: patent publication US11674120B2, “Methods, kits, and compositions for enhancing cellular therapy” (University of Florida Research Foundation, Incorporated, priority 2016, dated 2023)
